Data from patent US7863414B2, “Methods of treatment and uses for CaMKII and its interaction with HDACs and calpain” (The Board of Regents of the University of Texas Systems, priority 2005, dated 2011).
Entries after “also recorded” stand apart in the source; their conditions may differ.

What was measured:
[1] = test system: HDAC4; experiment: Nuclear export of Flag-HDAC4 in cardiomyocytes (NRVMs), immunofluorescence; format: cell-based, rat; conditions: for Effect of kinase inhibitor on PE-induced nuclear export of HDAC4: adenoviral Flag-HDAC4, inhibitor pretreatment 30 min, PE 4 hrs, Stauro 500 nmol/l, KN93 5 μmol/l, KN62 10 μmol/l, AIPII-2 500 nmol/l, Bis 2.5 μmol/l, Gö6976 200 nmol/l, H89 1 μmol/l; for Nuclear export of HDAC4 induced by adrenergic agonist: Flag-HDAC4, PE or Iso 10 μmol/l, up to 4 hrs
Description: (§1) Cardiomyocyte culture and adenoviral infection. NRVMs were isolated from 1-2 day Sprague Dawley rats. For adenovirus production, cDNAs encoding FLAG-tagged HDAC4 wild-type or a mutant containing alanines in place of serines 246, 467 and 632 (S/A) were subcloned into the pACCMV vector and co-transfected with pJM17 into 293 cells. Primary lysates were used to re-infect 293 cells and viral plaques were obtained using the agar overlay method. The production of adenoviral GFP-HDAC5 was described previously 18. NRVMs were infected 24 h after plating, starved for 4 h, and stimulated with PE or Iso for the indicated time period. In experiments with kinase inhibitors, NRVMs were pretreated with the inhibitor 30 min prior stimulation. For assessing cardiomyocyte hypertrophy, NRVMs were starved for 24 h and stimulated with PE for another 24 hrs. Subcellular localization of Flag-HDAC4 and cardiomyocyte hypertrophy, as assessed by sarcomeric organization, was determined by indirect immunofluorescence.
(§2) Indirect Immunofluorescence. COS cells were grown on glass coverslips, fixed in paraformaldehyde (4%), permeabilized in 0.1% Triton-X-100 and blocked in PBS containing goat serum (5%). Primary antibodies against FLAG (monoclonal or rabbit; Sigma), Myc (polyclonal, A-14; Santa Cruz), or HA (polyclonal, Y-11; Santa Cruz) were used at a dilution of 1:200. Secondary antibodies conjugated to either fluoresceine or Texas Red (Vector Laboratories) were also used at a dilution of 1:200. Staining of NRVMs for sarcomeres was performed with an antibody directed against sarcomeric α-actinin (Sigma). All images were captured at a magnification of ×40.

[2] = test system: MEF2; experiment: Reporter assay of endogenous MEF2 activity (3xMEF2-Luc) in NRVMs; format: cell-based, rat; conditions: ionomycin 0.25 μmol/l; for Effect on ionomycin-induced increase of endogenous MEF2 activity: NRVMs pretreated 30 min, Gö6976 200 nmol/l, KN93 2.5 μmol/l, KN62 5 μmol/l, CSA 1 μmol/l
Protocol: Endogenous MEF2 activity in NRVMs. One day after plating, a MEF2 dependent luciferase reporter (3xMEF2-Luc)56, carrying three MEF2-DNA binding sites, was transfected into NRVMs using Lipofectamine plus (Invitrogen; Carlsbad, Calif.). To control for transfection efficiency NRVMs were cotransfected with a β-galactosidase reporter plasmid (pCMV-lacZ). Twenty-four hours after transfection, NRVMs were starved for 24 h, pretreated with kinase inhibitors or cyclosporine for 30 min and stimulated with ionomycin for 24 h. Luciferase and β-galactosidase levels were quantified employing the Luciferase Assay Kit (Promega) and the FluoReporter Kit (Molecular probes), respectively.

[3] = test system: HDAC5; experiment: Nuclear export of GFP-HDAC5 in cardiomyocytes (NRVMs); format: cell-based, rat; conditions: PE 4 hrs
Description: as §1
Indirect Immunofluorescence. COS cells were grown on glass coverslips, fixed in paraformaldehyde (4%), permeabilized in 0.1% Triton-X-100 and blocked in PBS containing goat serum (5%). Primary antibodies against FLAG (monoclonal or rabbit; Sigma), Myc (polyclonal, A-14; Santa Cruz), or HA (polyclonal, Y-11; Santa Cruz) were used at a dilution of 1:200. […]

[4] = test system: neonatal rat ventricular myocytes (NRVMs); experiment: Cardiomyocyte hypertrophy in NRVMs; format: cell-based; conditions: data not shown
Description: as §1

[5] = test system: HDAC4; experiment: Subcellular localization of HDAC4 in Cos cells with active CaMKIIδB mutants, leptomycin B treatment; format: cell-based; conditions: 12 hours
Protocol: as §2, with “Cell culture and transfection assays. COS cells were maintained in DMEM with fetal bovine serum (10%), L-glutamine (2 mM), and penicillin-streptomycin. Transfection of COS cells was performed with Fugene 6 (Roche Molecular Biochemicals) according to manufacturer's instructions. Indirect” for “Indirect”

[6] = test system: HDAC4-GFP; experiment: Cellomics high content assay, nuclear localization of HDAC4-GFP in COS cells transfected with activated CaMKII; format: cell-based; conditions: COS cells transfected with HDAC4-GFP and CaMKII; concentration range; fixed at 48 hrs; EC50 only in FIG. 12
Protocol: The plates are incubated at room temperature for 60 minutes.

`Cn1c2ccccc2c2c3c(c4c5ccccc5n(CCC#N)c4c21)C(=O)NC3` [Gö6976] was tested, and the “Effect of kinase inhibitor on PE-induced nuclear export of HDAC4” value (from here on “Effect of kinase inhibitor”) [1] was “did not affect” and the “Effect on ionomycin-induced increase of endogenous MEF2 activity” value (shortened to “Effect on ionomycin-induced increase”) [2] was “did not affect”.
For `O=S(=O)(NCCNC/C=C/c1ccc(Br)cc1)c1cccc2cnccc12` [H89], the “Effect of kinase inhibitor” value [1] was “did not affect”.
With `C[C@H](CCC(=O)O)C[C@H](C)C[C@H](C)C(=O)/C=C(\O)[C@H](C)C[C@H](C)C/C=C/[C@@H](C)[C@@H](O)[C@@H](C)[C@@H](O)C[C@@H]1CC[C@@](C)([C@H]2CC[C@@](C)([C@@H](C)O)O2)O1` [Ionomycin, ionomycin] the “Endogenous MEF2 activity (3xMEF2-Luc) after stimulation” value ([2]; NRVMs) was “doubled”.
`CN([C@@H](Cc1ccc(OS(=O)(=O)c2cccc3cnccc23)cc1)C(=O)N1CCN(c2ccccc2)CC1)S(=O)(=O)c1cccc2cnccc12` [KN62] was tested, and the “Effect of kinase inhibitor” value [1] was “markedly reduced; also recorded: effective in blocking” and the “Effect on ionomycin-induced increase” value [2] was “blocked”.
`COc1ccc(S(=O)(=O)N(CCO)c2ccccc2CN(C)C/C=C/c2ccc(Cl)cc2)cc1` [KN93] was tested, and the “Effect of kinase inhibitor” value [1] was “markedly reduced; also recorded: effective in blocking”, the “Effect on PE-induced nuclear export of HDAC5” value ([3]; KN93 5 μmol/l pretreatment) was “not affected; also recorded: not blocked” and the “Effect on ionomycin-induced increase” value [2] was “blocked”.
With `CN(C)CCCn1cc(C2=C(c3c[nH]c4ccccc34)C(=O)NC2=O)c2ccccc21` [bisindolylmaleimide I] the “Effect of kinase inhibitor” value [1] was “did not affect”.
In the case of `CC(C)NCC(O)c1ccc(O)c(O)c1` (centres unmarked) [isoprenaline], the “Nuclear export of HDAC4 induced by adrenergic agonist” value (from here on “Nuclear export of HDAC4 induced”) [1] is reported as “time-dependent nuclear export”, the “Nuclear export of HDAC4 induced” value ([1]; listed as Iso) is reported as “time-dependently induced nuclear export” and the Hypertrophic growth response [4] is reported as “evoked a hypertrophic growth response”.
With `CCC(=C/[C@H](C)C/C=C/C(C)=C/[C@@H](C)C(=O)[C@@H](C)[C@H](O)[C@@H](C)C/C(C)=C/C(=O)O)/C=C/[C@@H]1OC(=O)C=C[C@@H]1C` [leptomycin B] the “Nuclear accumulation of HDAC4 after leptomycin B” value ([5]; absence or presence of constitutive nuclear active CaMKIIδb T287D/S332A) was “completely accumulated in the nucleus; also recorded: accumulates in the nucleus”, the “Nuclear accumulation of HDAC4 after leptomycin B” value ([5]; presence of cytosolic active CaMKIIδb T287D/K328N/K329N or CaMKIIδb T287D) was “no accumulation” and the “Dose response of HDAC4-GFP nuclear localization (Nuc-Cyto)” value [6] was “smooth dose response curves”.
For `CNC[C@H](O)c1cccc(O)c1` [phenylephrine], the “Nuclear export of HDAC4 induced” value [1] was “time-dependent nuclear export”, the “Nuclear export of HDAC4 induced” value ([1]; listed as PE) was “time-dependently induced nuclear export” and the “Nuclear export of HDAC5 in response to agonist” value [3] was “exported”. The Hypertrophic growth response [4] was “evoked a hypertrophic growth response”.
`CN[C@@H]1C[C@H]2O[C@@](C)([C@@H]1OC)n1c3ccccc3c3c4c(c5c6ccccc6n2c5c31)C(=O)NC4` [staurosporine] was tested, and the “Dose response of HDAC4-GFP nuclear localization (Nuc-Cyto)” value [6] was “smooth dose response curves”.
With “autoctamide-2 related inhibitory peptide II [AIPII-2]” the “Effect of kinase inhibitor” value [1] was “effective in blocking” and the “Effect of kinase inhibitor” value ([1]; listed as AIPII) was “markedly reduced”.
